Laboratory results: patent US5900434A, “Method for inhibiting the production of interleukin-1 or tumor necrosis factor-α by administering acanthoic acid” (Korea Institute of Science and Technology, priority 1994, dated 1999)

Legend:
[1] = test system: collagen synthesis in rat pulmonary fibroblast; assay: Inhibition of collagen synthesis in rat pulmonary fibroblasts (indirect ELISA); format: cell-based; details: culture of rat pulmonary fibroblast pretreated with acanthoic acid, silica-stimulated; FIG. 7
Description: Fibroblasts were separated from rats by using a modification of the method of Phan, S. H., et al. described in J. Clin. Invest., 76, 241(1985), as follows. A rat was anesthetized with ether and its lungs were isolated on the aseptic worktable. The lungs were cut into small pieces in the size ranging from 2 to 4 mm and suspended in phosphate buffered saline(PBS) containing collagenase and 0.5% trypsin to digest the tissues at 37° C. for 2 hours. The suspension was filtered through sterilized gauze to remove undigested tissues, etc. The separated cells were washed with PBS twice or three times and suspended into RPMI 1640 medium(Gibco, Grand Island, N.Y., U.S.A.) containing 10% fetal bovine serum(FBS, Hyclone, Logan, Utah, U.S.A.). […] For the purpose of confirming the ability of acanthoic acid to suppress the action of IL-1 and TNF-α, its inhibitory effect on the collagen synthesis in rat pulmonary fibroblast and pulmonary tissues was determined. The amount of produced collagen in the culture of rat pulmonary fibroblast was measured by an indirect ELISA method, and that of pulmonary tissue was determined by measuring the concentration of hydroxyproline and calculating the amount of collagen therefrom by using the standard curve of internal control group. […]

[2] = test system: serum glutamic-pyruvic transaminase (sGPT); assay: CCl4-induced hepatocirrhosis in rat, serum GPT; format: in vivo, Sprague-Dawley rat; details: CCl4-treated rat; 0.2 ml orally twice a week, 13 weeks; FIG. 10
Source text: Hepatocirrhosis(hepatic sclerosis) is characterized by the fibrosis of whole liver, complete disruption of liver parenchyma by fibrous septa, and formation of regenerative nodules. It is derived mostly from a chronic hepatitis or chronic alcoholism, however, the precise causes thereof are unknown. In a hepatocirrhosis patient, the amount of cytokines, e.g., TNF-α, which is involved in inflammation and fibrosis, is in an increased state; and, therefore, the inhibition of hepatocirrhosis by acanthoic acid may be determined by the inhibitory activity to TNF-α. To induce the experimental hepatocirrhosis in accordance with the method of Nakataukasa, H., et al. as described in J. Clin. Invest., 85, 1833-1843(1990), 1.0 ml/100 g of body weight of CCl4 solution(50% CCl4 +50% corn oil) was injected intraperitoneally to 4 week old male Sprague-Dawley rats twice a week, and 0.2 ml each of methanol extract of A. koreanum Nakai and acanthoic acid was administered orally at the time of the injection of CCl4 twice a week. After 13 weeks from the start of the test, each of the rats was anesthetized with ether and the blood samples were obtained from the heart to determine serum glutamic-oxaloacetic transaminase(sGOT) value and serum glutamic-pyruvic transaminase(sGPT) value(FIG. 10).

[3] = test system: prostaglandin E2 (PGE2) synthesis; details: cited from earlier work

## C=C[C@@]1(C)CC=C2C(CCC3[C@](C)(C(=O)O)CCC[C@@]23C)C1 (single isomer, unassigned; (-)) [acanthoic acid, (-)-pimara-9(11),15-diene-19-oic acid]
[1]
  amount of synthesized collagen: decreases significantly
[2]
  decrease of sGPT value: more than 40%
[3]
  inhibition of prostaglandin E2 (PGE2) synthesis: inhibit
